Laboratory results: patent US20120251999A1, “VITRIFICATION SYSTEMS AND METHODS” (THE BRIGHAM AND WOMEN'S HOSPITAL, INC., priority 2011, published 2012)
Several values for one entry are separate records, joined by “and”; a condition that tells them apart may be missing. Equal values may be shown once. Read-outs that look alike come from different tables or passages of the source.

What was measured:
[1] = ejected into liquid nitrogen
Description: The experimental setup was as described in Song et al. PNAS 2010.

[2] = tested on: mouse oocytes; test: Parthenogenetic activation of oocytes using SrCl2 (cleavage and blastocyst development); type: cell-based
Experimental: Prior to parthenogenetic activation, oocytes were cultured in KSOM medium supplemented with 4 mg/ml BSA for 2 h to allow oocytes to recover from the previous experimental procedure. For parthenogenetic activation, oocytes were incubated in SrCl2 solution in KSOM medium at 37° C. in 5% CO2/95% air for 2 h and then washed three-times with FHM medium. Oocytes were then transferred to KSOM medium and cultured at 37° C. in 5% CO2/95% air.
To determine the optimal SrCl2 concentration to parthenogenetically activate fresh mouse oocytes, we tested four SrCl2 concentrations (10 mM, 20 mM, 50 mM and 100 mM). Over the following 6 days, treated oocytes were examined microscopically every day for embryo development to the cleavage and blastocyst stages. Day 1 is defined as 24 h after treatment. Oocytes incubated in the regular KSOM medium without SrCl2 were used as controls. To determine whether droplet encapsulation has effect on oocyte parthenogenetic activation, oocytes in FHM medium were ejected into a center well culture dish containing 400 μl of FHM medium. To minimize the effects of shear stress generated at the ejector tip when using medium instead of CPAs, the flow rate of nitrogen gas was reduced to 0.6 SLPM to obtain droplet sizes similar to those obtained at 0.8 SLPM using CPAs. Oocytes were retrieved and cultured in KSOM medium at 37° C. in 5% CO2/95% air for 2 h before parthenogenetic activation. SrCl2 solution at the concentration of 50 mM, which gave the highest cleavage and blastocyst rates with control oocytes, was used for the activation of oocytes following ejection into the medium.

[3] = 10 mM SrCl2, fresh control oocytes
[4] = 10 mM SrCl2, fresh control oocytes, 81 initiated
[5] = 20 mM SrCl2, fresh control oocytes
[6] = 20 mM SrCl2, fresh control oocytes, 82 initiated
[7] = 50 mM SrCl2, fresh control oocytes
[8] = 50 mM SrCl2, fresh control oocytes, 79 initiated
[9] = 50 mM SrCl2, oocytes after ejection with medium
[10] = 100 mM SrCl2, fresh control oocytes
[11] = 100 mM SrCl2, fresh control oocytes, 88 initiated

## CC(O)CO (stereo not shown) [PrOH, 1,2-propanediol]
[1]; 194 μm droplets, 3 M PrOH
  vitrification of droplets: vitrified
[1]; 525 μm droplets, 4.5 M PrOH
  vitrification of droplets: non-vitrified

## [Cl-].[Cl-].[Sr+2] [SrCl2]
[2]; [3]
  Blastocysts developed (%): 0 (0)
  Oocytes cleaved (%): 3.7%
[2]; [4]
  Blastocysts developed (number): 0 (0)
  No. of Oocytes cleaved: 3
[2]; [5]
  Blastocysts developed (%): 15.9%
  Oocytes cleaved (%): 46.3%
[2]; [6]
  Blastocysts developed (number): 13
  No. of Oocytes cleaved: 38
[2]; [7]
  Blastocysts developed (%): 49.4%
  Oocytes cleaved (%): 88.9% and 88.6%
[2]; [8]
  Blastocysts developed (number): 33
  No. of Oocytes cleaved: 70
[2]; [9]
  Blastocysts developed (%): 26.0%
  Oocytes cleaved (%): 96% and 97.0%
[2]; 50 mM SrCl2, oocytes after ejection with medium, 100 initiated
  Blastocysts developed (number): 26
[2]; 50 mM SrCl2, oocytes after encapsulation in medium droplets and ejection into medium, 100 initiated
  No. of Oocytes cleaved: 96
[2]; [10]
  Blastocysts developed (%): 2.3%
  Oocytes cleaved (%): 48.9%
[2]; [11]
  Blastocysts developed (number): 2
  No. of Oocytes cleaved: 43
